Assay results as given in US8318813B2, “Method of treating binge eating disorder” (LCS Group, LLC, priority 2007, dated 2012).

How the values were obtained:
[1] = test system: Patient with Comorbid Generalized Anxiety Disorder, Major Depression, and ADHD; assay: Case report Patient 6: VYVANSE added to PAXIL
Experimental: The patient was maintained on PAXIL (paroxetine) 30 mg per day following a significant comorbid major depressive episode associated with anxiety symptoms, and a history consistent with Generalized Anxiety Disorder. […] However, after beginning a new job with more challenging responsibilities, the patient was unable to compensate for such deficits and a pattern of obsessive ruminations emerged, often involving work. In addition to perseverative and obsessive thinking, the patient experienced heightened anxiety and mild depressive symptoms, including fatigue, low mood, and amotivation, especially while at work. After discussing medication options and side effect concerns, VYVANSE was initiated to address underlying ADHD symptoms, which were felt to drive the patient's perseverative thinking, anxious ruminations, and low mood. […] PAXIL was maintained at 30 mg per day.

[2] = test system: Patient with Major Depressive Disorders and Binge Eating Disorder; assay: Case report Patient 1: lisdexamfetamine dimesylate added to ZOLOFT
[3] = test system: Patient with Comorbid Depressive Disorders and Binge Eating Behavior; assay: Case report Example 4: VYVANSE; assay type: in vivo, human
From the text: The patient also endorsed symptoms of ADHD, inattentive type, primarily around problems with organizing tasks, procrastination of work activities, and problems completing projects, though such ‘inattention’ symptoms were considered as clinically less detrimental than feeling chronically depressed, lacking motivation or interest in work or social activities, feeling fatigued and sometimes guilty, and having gained weight over several years due to ‘emotional eating’ behavior. The patient had received therapy in the past to address depressive episodes and associated life stressors, with modest benefit. The patient also described a history of ‘emotional eating’ that could occur at any time of day though more often in the late afternoons or early evenings. Such ‘emotional eating’ was often triggered by stressful situations or events, accompanied by an urge to eat, and would typically lead to excess consumption of carbohydrate-based foods. In recent years, the patient reported having gained over 10% body weight and noted a general trend toward increasing emotional eating and binging behavior. More severe binges occurred at least several times per month over a stretch of several years, though were much less common than ‘emotional eating’ that was milder in nature and occurred nearly daily. […] The patient was maintained on VYVANSE for 10 weeks at 50 mg per day. […] Symptoms of emotional eating were improved in the evenings as well, with less than one per week on average as compared to most evenings previously. […] The organization and execution of work-related tasks improved during the course of treatment as well.
The patient also began a trend of weight loss on account of decreased emotional eating and binging. The patient's ADHD was also clinically relevant, which is the primary reason VYVANSE was chosen as the initial medication treatment, though it was not the reason for which evaluation and treatment was sought and of secondary importance with regard to symptoms causing the patient difficulty and concern. […] Binge-eating behavior, largely taking the form of ‘self-soothing’ eating activity with potentially serious risks in this patient insofar as it was causing steady increased weight gain to the point of obesity), responded remarkably well to treatment with VYVANSE.

[4] = test system: Patient with ADHD, Generalized Anxiety Disorder, and Obsessive-Compulsive Behavior; assay: Case report Example 3: VYVANSE; assay type: in vivo, human
From the text: The patient is a non-geriatric adult diagnosed with a history of ADHD, inattentive type, and comorbid Generalized Anxiety Disorder, though had no prior treatment. Presenting ADHD symptoms included difficulty sustaining attention and attending to details, difficulty organizing tasks with tendencies toward avoidance, distractibility, and problems finishing tasks that have been initiated. Symptoms of Generalized Anxiety Disorder included frequent and intense ruminative worrying, feeling overly fatigued, muscle tension and intermittent problems with sleep. […] The patient was started on VYVANSE 30 mg in the morning, along with TRAZODONE 50 mg at bedtime. VYVANSE was maintained at 30 mg once daily in the morning for one week, followed by one week at 50 mg per day, and then 70 mg per day, taken in the morning. […] The patient maintained treatment on VYVANSE at 70 mg per day for 10 weeks; TRAZODONE 50 mg at bedtime was discontinued after 4 weeks as sleep patterns had sufficiently normalized. […] The patient previously felt little or no control around such worrying, ruminative behavior and speculated that it caused significant mental and even physical fatigue.
Stimulant medications have traditionally been associated with causing or worsening anxiety symptoms (for instance, being ‘anxiogenic’).

[5] = test system: Patient with Binge Eating Disorder and Major Depressive Disorders; assay: Case report Patient 2: lisdexamfetamine dimesylate monotherapy
[6] = once per day dosing; cited from earlier work
[7] = test system: patient with Binge Eating Disorder, Medication-Induced Cognitive Problems, and Fatigue; assay: Case report Example 5: VYVANSE added to existing regimen; assay type: in vivo, human
From the text: The patient previously has been treated with therapy and has had multiple prior medication trials, either discontinued due to lack of efficacy or side effects, including ZOLOFT (sertraline), CELEXA (citalopram), PROZAC (fluoxetine), LEXAPRO (escitalopram), WELLBUTRIN SR (bupropion HCl), NORTRIPTYLINE, ATIVAN (lorazepam), ABILIFY (aripiprazole), RISPERDAL (risperidone), SEROQUEL (quetiapine), LYRICA (pregabalin), and RITALIN (methylphenidate). Selective serotonin reuptake inhibitors exacerbated binge eating symptoms and caused problematic weight gain. For treatment of depression with comorbid anxiety, binge-eating, and weight-gain related to binge eating symptoms, the patient was maintained on a medication regimen that included TOPAMAX (topiramate) 175 mg in the morning and 200 mg at night, LAMICTAL (lamotrigine) 200 mg in the morning, CYTOMEL (liothyronine) 25 mcg per day, KLONOPIN (clonazepam) 0.25 mg at bed time, and NEURONTIN (gabapentin) 600 mg at bedtime. […] Given prior poor response to a number of different classes of medication trials, off-label use of VYVANSE was initiated at 30 mg each morning to target a constellation of symptoms, including symptoms of major depression, binge-eating disorder, fatigue, and concentration problems. VYVANSE was maintained at 30 mg each morning for weeks before being discontinued due to adverse effects. […] However, there appeared to be no benefit on the patient's depressed mood, amotivation, and feelings of hopelessness.
This case exemplifies the clinical benefit of lisdexamfetamine dimesylate on binge-eating symptoms and potentially on weight-gain related to binging (body weight was not obtained), though longer-term treatment was cut short by adverse effects at the 30 mg dosage form. Given the number of failed prior trials, off-label use of VYVANSE was clinically indicated, especially given the severity of binge eating behavior.

## CS(=O)(=O)O.CS(=O)(=O)O.C[C@@H](Cc1ccccc1)NC(=O)[C@@H](N)CCCCN [lisdexamfetamine dimesylate, (2S)-2,6-diamino-N-[(1S)-1-methyl-2-phenylethyl]hexanamide dimethanesulfonate]
[1]; 30 mg per day for one week, titrated to 50 mg per day
  adverse effect: without adverse effect
[1]; ensuing 9 weeks, with PAXIL 30 mg per day
  ADHD, Generalized Anxiety Disorder, and Major Depressive Disorder symptoms: improvement
[1]; over 2 months of treatment, VYVANSE 50 mg per day with PAXIL 30 mg per day
  weight loss: 4-5%
[1]; with PAXIL 30 mg per day
  mood, motivation and energy: improved
  worrying: substantial reduction
[2]; 8 weeks of maintenance on 70 mg in addition to 100 mg ZOLOFT (sertraline)
  depressive symptoms: full remission
[2]; for the 8 weeks at 70 mg daily along with 100 mg ZOLOFT
  binging days: no more than 3
[2]; from approximately 12 or more to no more than 3 per month
  reduction of binging eating days per month: approximately 75%
[2]; while taking lisdexamfetamine dimesylate, before approximately 12 or more per month
  binge eating days per month: no more than 3 per month
[3]; 30 mg per day for two weeks, increased to 50 mg per day
  adverse effects: without any adverse effects
[3]; 50 mg daily
  emotional eating behavior in the afternoon: abrupt and sustained cessation
[3]; 10 weeks at 50 mg per day
  depressive symptoms: significant amelioration
[3]; at any point while taking VYVANSE, before at least several times per month
  major binges: no reported major binges
[3]; during the course of treatment
  organization and execution of work-related tasks: improved
[3]; on average, compared to most evenings previously
  emotional eating in the evenings: less than one
[3]; over 2½ months of treatment
  weight lost: 6-7 pounds
[4]; 70 mg per day
  compulsive ruminating and worrying: highly significant improvement
[4]; 70 mg per day, compared to previous baseline function
  ability to sustain attention and attend to details, organize and finish projects, process information: significantly enhanced
[4]; after 10 weeks at 70 mg per day
  inattention symptoms: only mildly affected
[4]; for the duration of the day
  'wear off' during treatment of Generalized Anxiety Disorder symptoms: no problematic ‘wear off’
[4]; within the first week, 30 mg in the morning with TRAZODONE 50 mg at bedtime
  ADHD and Generalized Anxiety Disorder symptoms: positive effect
[5]; Patient 2
  ADHD symptoms: as effective as […] XR
[5]; end of 5 weeks of treatment, 271 mg/dL prior to treatment
  triglyceride levels: 160 mg/dL
[5]; first 2 weeks of treatment, before at least two days per week
  binging episodes: only once
[5]; monotherapy, about 10 weeks
  depressive symptoms (depressed mood, interest level, sleep quality, physical fatigue): overall improvement
[5]; obese patient, about 10 weeks on lisdexamfetamine dimesylate (70 mg from day 3)
  total body weight lost: approximately 7%
[5]; subsequent 8 weeks of treatment
  binging episodes: stopped entirely
[6]
  time after administration for which significant effects have been demonstrated: up to 12 hours
[7]; 30 mg each morning
  absolute binges per week: fewer
  binge-eating days per week: fewer
  depressed mood, amotivation, and feelings of hopelessness: no benefit
  fatigue and concentration throughout the day: improvement
[7]; 30 mg each morning, during the time of treatment
  urge to binge: notably reduced
[7]; 30 mg each morning, with TOPAMAX, LAMICTAL, CYTOMEL, KLONOPIN, NEURONTIN
  adverse effects leading to discontinuation: excessive appetite suppression and visual blurring

## CC1(C)O[C@@H]2[C@@H](CO[C@@]3(COS(N)(=O)=O)OC(C)(C)O[C@@H]23)O1 [TOPAMAX, topiramate]
[7]; TOPAMAX 175 mg in the morning and 200 mg at night, clinically insufficient
  binge eating behavior: helped reduce
[7]; in vivo
  tolerability: poorly tolerated at higher doses due to cognitive side effects

## Fc1ccc([C@@H]2CCNC[C@H]2COc2ccc3c(c2)OCO3)cc1 [PAXIL, paroxetine]
[1]; PAXIL 30 mg per day
  depressive and anxiety symptoms: rapidly stabilized
